Source: US6395896B2, “Pyridazine derivatives, manufacturing method and related composition” (Shiseido Co., Ltd., priority 1999, dated 2002)

How the values were obtained:
[1] = Drug stabilization effect (photostabilizer, sunlight exposure); parameters: key to Sunlight exposure (80 MJ) Appearance: A: No change; B: No almost change; C: Yes change; details: photostabilizer 0.05, amounts wt %
Experimental: Next, the photo stabilization effect and changes in appearance in drug compositions were studied according to the following evaluation formulation.
Each test sample was prepared. Appearance changes of the samples exposed to sunlight (80 MJ) was observed (visual evaluation). Also, residual yield was measured by liquid chromatography.

[2] = Perfume stabilization effect (photostabilizer, sunlight exposure, judgement by perfumier); parameters: key to Sunlight exposure (80 MJ) Smell evaluation / Sunlight exposure (80 MJ) evaluation: A: No change; B: No almost change; C: Yes change
Experimental: Next, the photostabilization effect for each perfume was studied by the following evaluation formulation.
Each test sample was prepared. Change of smell of sample exposed to sunlight (80 MJ) was observed (judgement by perfumier).

[3] = Colorant stabilization effect (photostabilizer, sunlight exposure); parameters: key to Sunlight exposure (80 MJ) Appearance: A: No change; B: No almost change; C: Yes change; key to Sunlight exposure (80 MJ) ΔE: ΔE color difference (Lab) vs. color before sunlight exposure; details: photostabilizer 0.05 wt %
Experimental: First of all, the photostabilization effect and appearance change of a composition in each pigment were studied by the following evaluation formulation.
Each test sample was prepared. Observation of appearance change (visual evaluation) and measurement of color difference (ΔE) were carried out in samples exposed to sunlight exposure (around 80 MJ).
Color difference was measured by Lab coordinate system with spectrophotometer. Color difference was calculated on the basis of the color before sunlight exposure. Namely, from measured value (L1,a1,b1) before sunlight exposure, color difference (ΔE) was calculated by following formula.

[4] = Perfume stabilization effect (sequestering agent combination); parameters: key to Sunlight exposure (80 MJ) Smell evaluation: A: No change; B: No almost change; C: Yes change; details: sequestering agent 0.03 alone, photostabilizer 0, amounts wt %
Experimental: Next, for combinations with sequestering agent, photostabilization effect for each perfume was studied by the following evaluation formulation.
Each test sample was prepared. Smell change of samples exposed to sunlight (80 MJ) was observed (judgement by perfumier).

[5] = Pigment stabilization effect (sequestering agent combination); parameters: key to Sunlight exposure (80 MJ) Appearance: A: No change; B: No almost change; C: Yes change; key to Sunlight exposure (80 MJ) ΔE: color difference ΔE in Lab space vs. color before sunlight exposure; details: photostabilizer 0, amounts wt %
Experimental: First of all, the photostabilization effect and appearance changes of a composition for each pigment were studied by the following evaluation formulation.
Each test sample was prepared. Observation of appearance changes (visual evaluation) and measurement of color difference (ΔE) were carried out for samples exposed to sunlight (around 80 MJ).
Color difference was measured by Lab coordinate system with spectrophotometer. Color difference was calculated based on the color before sunlight exposure. Namely, from the measured value (L1,a1,b1) before sunlight exposure, color difference (ΔE) was calculated by following formula.

[6] = Drug stabilization effect (sequestering agent combination); parameters: key to Sunlight exposure (80 MJ) Appearance: A: No change; B: No almost change; C: Yes change; details: sequestering agent 0.03 alone, photostabilizer 0, amounts wt %
Experimental: Next, when combined with a sequestering agent, the photostabilization effect and appearance change of a composition for each drug was studied by the following evaluation formulation.
Each test sample was prepared. Appearance change of the samples exposed to sunlight (around 80 MJ) was observed (visual evaluation). Also, residual yield of a drug was measured by liquid chromatography.

[7] = drug 2-o-α-α-glucopyranosyl-L-ascorbic acid 2.0
[8] = drug Dibutylhydroxytoluene 0.01
[9] = drug Dipotassium glycyrrhizinate 0.05
[10] = drug L-ascorbic acid 2-(dl-α-tocopheryl hydrogen phosphate) potassium salt 0.01
[11] = colorant Blue No. 1 0.0001, sequestering agent 0.03 alone
[12] = colorant Green No. 3 0.0001, sequestering agent 0.03 alone
[13] = colorant Red No. 106 0.0001, sequestering agent 0.02 alone
[14] = colorant Red No. 213 0.0001, sequestering agent 0.05 alone
[15] = colorant Red No. 227 0.0001, sequestering agent 0.02 alone
[16] = colorant Red No. 401 0.001, sequestering agent 0.1 alone
[17] = colorant Yellow No. 5 0.001, sequestering agent 0.02 alone
[18] = colorant Yellow No. 203 0.001, sequestering agent 0.02 alone
[19] = colorants Red No. 227 0.0001 + Yellow No. 203 0.0001, sequestering agent 0.02 alone
[20] = colorants Red No. 401 0.0001 + Green No. 3 0.00001, sequestering agent 0.03 alone
[21] = colorants Yellow No. 203 0.0001 + Yellow No. 5 0.0001, sequestering agent 0.01 alone

Molecule: CCCCCCCCOC(=O)C=Cc1ccc(OC)cc1 [Octyl p-methoxycinnamate, reference compound]
- Sunlight exposure (80 MJ) Appearance [1, 7]: C
- Sunlight exposure (80 MJ) Residual yield [%] [1, 7]: 92.3%
- Sunlight exposure (80 MJ) Appearance [1, 8]: C
- Sunlight exposure (80 MJ) Residual yield [%] [1, 8]: 71.7%
- Sunlight exposure (80 MJ) Appearance [1, 9]: C
- Sunlight exposure (80 MJ) Residual yield [%] [1, 9]: 90.8%
- Sunlight exposure (80 MJ) Appearance [1, 10]: C
- Sunlight exposure (80 MJ) Residual yield [%] [1, 10]: 82.1%
- Sunlight exposure (80 MJ) Appearance ([1]; drug Salicylic acid 0.1): C
- Sunlight exposure (80 MJ) Residual yield [%] ([1]; drug Salicylic acid 0.1): 92.2%
- Sunlight exposure (80 MJ) Smell evaluation ([2]; Base perfume Fruity 0.03 wt %, photostabilizer 0.1 wt %): C
- Sunlight exposure (80 MJ) Smell evaluation ([2]; Base perfume Muguet 0.03 wt %, photostabilizer 0.05 wt %): C
- Sunlight exposure (80 MJ) Smell evaluation ([2]; Base perfume Rose 0.03 wt %, photostabilizer 0.05 wt %): C
- Sunlight exposure (80 MJ) Smell evaluation ([2]; Base perfume Spicy 0.03 wt %, photostabilizer 0.2 wt %): C
- Sunlight exposure (80 MJ) Smell evaluation ([2]; Base perfume Woody 0.03 wt %, photostabilizer 0.1 wt %): C
- Sunlight exposure (80 MJ) Smell evaluation ([2]; Natural perfume Jasmine oil 0.03 wt %, photostabilizer 0.05 wt %): C
- Sunlight exposure (80 MJ) Smell evaluation ([2]; Natural perfume Lavender oil 0.03 wt %, photostabilizer 0.1 wt %): C
- Sunlight exposure (80 MJ) Smell evaluation ([2]; Natural perfume Neroli oil 0.03 wt %, photostabilizer 0.1 wt %): C
- Sunlight exposure (80 MJ) Smell evaluation ([2]; Natural perfume Rose oil 0.03 wt %, photostabilizer 0.05 wt %): C
- Sunlight exposure (80 MJ) Smell evaluation ([2]; Natural perfume Ylang ylang oil 0.03 wt %, photostabilizer 0.2 wt %): C
- Sunlight exposure (80 MJ) Smell evaluation ([2]; Synthetic perfume Citral 0.03 wt %, photostabilizer 0.1 wt %): C
- Sunlight exposure (80 MJ) Smell evaluation ([2]; Synthetic perfume Limonene 0.03 wt %, photostabilizer 0.05 wt %): C
- Sunlight exposure (80 MJ) Smell evaluation ([2]; Synthetic perfume Linalool 0.03 wt %, photostabilizer 0.05 wt %): C
- Sunlight exposure (80 MJ) Smell evaluation ([2]; Synthetic perfume Linalyl acetate 0.03 wt %, photostabilizer 0.1 wt %): C
- Sunlight exposure (80 MJ) Smell evaluation ([2]; Synthetic perfume Rose oxide 0.03 wt %, photostabilizer 0.2 wt %): C
- Sunlight exposure (80 MJ) Appearance ([3]; Blue No. 1 0.0001 wt %): C
- Sunlight exposure (80 MJ) ΔE ([3]; Blue No. 1 0.0001 wt %): 5.23
- Sunlight exposure (80 MJ) Appearance ([3]; Green No. 3 0.0001 wt %): C
- Sunlight exposure (80 MJ) ΔE ([3]; Green No. 3 0.0001 wt %): 1.64
- Sunlight exposure (80 MJ) Appearance ([3]; Red No. 106 0.0001 wt %): C
- Sunlight exposure (80 MJ) ΔE ([3]; Red No. 106 0.0001 wt %): 1.95
- Sunlight exposure (80 MJ) Appearance ([3]; Red No. 213 0.0001 wt %): C
- Sunlight exposure (80 MJ) ΔE ([3]; Red No. 213 0.0001 wt %): 2.55
- Sunlight exposure (80 MJ) Appearance ([3]; Red No. 227 0.0001 wt %): C
- Sunlight exposure (80 MJ) ΔE ([3]; Red No. 227 0.0001 wt %): 1.22
- Sunlight exposure (80 MJ) Appearance ([3]; Red No. 401 0.001 wt %): C
- Sunlight exposure (80 MJ) ΔE ([3]; Red No. 401 0.001 wt %): 4.76
- Sunlight exposure (80 MJ) Appearance ([3]; Yellow No. 5 0.001 wt %): C
- Sunlight exposure (80 MJ) ΔE ([3]; Yellow No. 5 0.001 wt %): 1.56
- Sunlight exposure (80 MJ) Appearance ([3]; Yellow No. 203 0.001 wt %): C
- Sunlight exposure (80 MJ) ΔE ([3]; Yellow No. 203 0.001 wt %): 2.43

Molecule: Sodium metaphosphate
- Sunlight exposure (80 MJ) Smell evaluation ([4]; natural perfume Jasmine oil 0.03): C
- Sunlight exposure (80 MJ) Smell evaluation ([4]; natural perfume Musk oil 0.03): C
- Sunlight exposure (80 MJ) Smell evaluation ([4]; natural perfume Orange oil 0.03): C
- Sunlight exposure (80 MJ) Smell evaluation ([4]; perfume Fruity 0.03): C
- Sunlight exposure (80 MJ) Smell evaluation ([4]; perfume Muguet 0.03): C
- Sunlight exposure (80 MJ) Smell evaluation ([4]; synthetic perfume Lilial 0.03): C
- Sunlight exposure (80 MJ) Smell evaluation ([4]; synthetic perfume Oranthiol 0.03): C
- Sunlight exposure (80 MJ) Appearance [5, 11]: C
- Sunlight exposure (80 MJ) ΔE [5, 11]: 8.02
- Sunlight exposure (80 MJ) Appearance [5, 12]: C
- Sunlight exposure (80 MJ) ΔE [5, 12]: 2.02
- Sunlight exposure (80 MJ) Appearance [5, 13]: C
- Sunlight exposure (80 MJ) ΔE [5, 13]: 2.88
- Sunlight exposure (80 MJ) Appearance [5, 14]: C
- Sunlight exposure (80 MJ) ΔE [5, 14]: 3.71
- Sunlight exposure (80 MJ) Appearance [5, 15]: C
- Sunlight exposure (80 MJ) ΔE [5, 15]: 1.37
- Sunlight exposure (80 MJ) Appearance [5, 16]: C
- Sunlight exposure (80 MJ) ΔE [5, 16]: 7.07
- Sunlight exposure (80 MJ) Appearance [5, 17]: C
- Sunlight exposure (80 MJ) ΔE [5, 17]: 1.77
- Sunlight exposure (80 MJ) Appearance [5, 18]: C
- Sunlight exposure (80 MJ) ΔE [5, 18]: 2.74
- Sunlight exposure (80 MJ) Appearance [5, 19]: C
- Sunlight exposure (80 MJ) ΔE [5, 19]: 3.01
- Sunlight exposure (80 MJ) Appearance [5, 20]: C
- Sunlight exposure (80 MJ) ΔE [5, 20]: 4.23
- Sunlight exposure (80 MJ) Appearance [5, 21]: C
- Sunlight exposure (80 MJ) ΔE [5, 21]: 1.44
- Sunlight exposure (80 MJ) Appearance [6, 7]: C
- Sunlight exposure (80 MJ) Residual yield [%] [6, 7]: 85.2%
- Sunlight exposure (80 MJ) Appearance [6, 8]: C
- Sunlight exposure (80 MJ) Residual yield [%] [6, 8]: 54.7%
- Sunlight exposure (80 MJ) Appearance [6, 9]: B
- Sunlight exposure (80 MJ) Residual yield [%] [6, 9]: 85.8%
